Results as given in ChEMBL document CHEMBL1125943, “Preparation of the geometric isomers of DDC, DDA, D4C and D4T as potential anti-HIV agents” (Bioorg Med Chem Lett, 1991).

Tests used:
CCRF-CEM [1] = assay: Compound was tested for cellular toxicity against HIV in CEM cells at concentration up to 100 uM; IA means inactive; format: cell-based; details: human
CCRF-CEM [2] = assay: The inhibitory dose against HIV in CEM cells was evaluated.; format: functional, Homo sapiens; details: read-out: ID50 (the source's name)

| SMILES | Toxicity (CCRF-CEM [1]) | also measured |
| --- | --- | --- |
| Cc1cn([C@@H]2C=C[C@H](CO)O2)c(=O)[nH]c1=O | Not Active |  |
| Nc1ccn([C@@H]2CC[C@H](CO)O2)c(=O)n1 |  | IC50 (CCRF-CEM [2]; Homo sapiens, CCRF-CEM): 0.66 µM |
| Nc1ccn([C@@H]2C=C[C@H](CO)O2)c(=O)n1 | Not Active |  |
| Nc1ccn(C2CC[C@H](CO)O2)c(=O)n1 (single isomer, unassigned) | Not Active |  |
| Nc1ncnc2c1ncn2[C@H]1CC[C@@H](CO)O1 (single isomer, unassigned) | Not Active |  |
| Nc1ccn([C@H]2CC[C@@H](CO)O2)c(=O)n1 (stereo in doubt; form 1) [ZALCITABINE] |  | IC50 (CCRF-CEM [2]): < 0.1 µM |
| Nc1ccn([C@H]2CC[C@@H](CO)O2)c(=O)n1 (stereo in doubt; form 2) [ZALCITABINE] |  | IC50 (CCRF-CEM [2]): 0.04 µM |
